{"source": "patent US20260345598A1", "about": "(INTRA-CELLULAR THERAPIES, INC., priority 2023, published 2026)", "key": {"[1]": {"system": "glutamatergic NMDA NR2B (GluN2B) receptors", "conditions": "mesolimbic; cited from earlier work"}, "5-HT2A receptor [2]": {"system": "5-HT2A receptor", "conditions": "cited from earlier work"}, "[3]": {"system": "patients with acute exacerbated schizophrenia", "test": "Clinical studies in patients with acute exacerbated schizophrenia, emotional experience symptoms", "type": "in vivo, human", "conditions": "60 mg P.O. once daily, up to 28 days, two clinical studies, vs placebo", "from_the_text": "Social avoidance can be a critical and debilitating symptom in patients suffering from anxiety disorders, especially social anxiety disorder, as well as in patients suffering from traumatic anxiety disorders. Social avoidance is often one of the key determinants of whether a person with a severe anxiety disorder is capable of maintaining familial relationships or employment relationships. […] Negative symptoms of schizophrenia can be divided into two categories: emotional experience (e.g., emotional withdrawal, passive social withdrawal, active social avoidance) and emotional expression (e.g., blunted effect, poor rapport, lack of spontaneity, and motor retardation). […] These are the symptoms that are most highly correlated with interpersonal functioning."}, "[4]": {"system": "PFC mTORC1-related signaling pathways", "test": "PFC mTORC1-related signaling and neurotrophic factor genes after acute administration", "type": "in vivo", "from_the_text": "As a result, glutamate release is increased which enhances AMPA mediated currents, BDNF release, and mTORC1 activation. Increased synaptogenesis has been associated with enhanced mTORC1 signaling in the PFC."}, "5-HT2A receptor [5]": {"molecular_target": "5-HT2A receptor", "conditions": "read-out: 5-HT2A receptor antagonism Ki; cited from earlier work"}, "[6]": {"system": "NMDA/AMPA receptors and downstream BDNF and mTOR signaling", "conditions": "compared with ketamine; cited from earlier work"}, "D2 receptor": {"molecular_target": "D2 receptor", "conditions": "presynaptic D2 receptor partial agonism and postsynaptic D2 receptor antagonism; cited from earlier work"}, "NMDA and AMPA receptor": {"system": "NMDA and AMPA receptor", "conditions": "rat mPFC slices; cited from earlier work"}, "[7]": {"conditions": "in vivo; cited from earlier work"}, "right lateral PFC": {"system": "right lateral PFC", "conditions": "patients with MDD, after ketamine treatment; cited from earlier work"}, "5-HT2A receptor [8]": {"system": "5-HT2A receptor", "conditions": "pre-treatment; cited from earlier work"}, "serotonin receptor": {"system": "serotonin receptor", "conditions": "pre-treatment, dose blocking about 30% of 5-HT2A receptors; cited from earlier work"}, "[9]": {"system": "dendritic spines in cells of the frontal cortex", "conditions": "cited from earlier work"}, "[10]": {"system": "medial prefrontal cortex neurons", "conditions": "mouse, in vivo; cited from earlier work"}}}
{"smiles": "CN1CCN2c3c(cccc31)[C@@H]1CN(CCCC(=O)c3ccc(F)cc3)CC[C@@H]12", "note": "[Lumateperone, 4-((6bR,10aS)-3-methyl-2,3,6b,9,10,10a-hexahydro-1H-pyrido[3′,4′: 4,5]pyrrolo[1,2,3-de]quinoxalin-8 (7H)-yl)-1-(4-fluorophenyl)-1-butanone]", "values": [{"measurement": "phosphorylation of NMDA NR2B (GluN2B) receptors", "setting": "[1]", "value": "stimulates phosphorylation of glutamatergic NMDA NR2B (GluN2B) receptors in a mesolimbic specific manner"}, {"measurement": "5-HT2A receptor functional activity", "setting": "5-HT2A receptor [2]", "value": "strong antagonist of the 5-HT2A receptor"}, {"measurement": "serotonin receptor agonist activity", "setting": "5-HT2A receptor [2]", "value": "does not have serotonin receptor agonist activity"}, {"measurement": "symptoms of emotional experience", "setting": "[3]", "value": "significant and unexpected improvement in symptoms of emotional experience compared to placebo"}, {"measurement": "PFC mTORC1-related signaling and neurotrophic factor genes", "setting": "[4]", "value": "stimulates PFC mTORC1-related signaling pathways, as well as some important genes coding for neurotrophic factors, such as BDNF and VEGF"}, {"measurement": "Ki", "setting": "5-HT2A receptor [5]", "value": 0.5, "unit": "nM"}, {"measurement": "activity on NMDA/AMPA receptors and downstream BDNF and mTOR signaling", "setting": "[6]", "value": "very similar activity on NMDA/AMPA receptors and downstream BDNF and mTOR signaling as ketamine"}, {"measurement": "Ki", "setting": "D2 receptor", "value": 32, "unit": "nM"}, {"measurement": "glutamatergic neurotransmission, NMDA and AMPA receptor conductance", "setting": "NMDA and AMPA receptor", "value": "enhance glutamatergic neurotransmission by effects on both NMDA and AMPA receptor conductance"}]}
{"smiles": "CN(C)CCc1c[nH]c2cccc(O)c12", "note": "[Psilocin]", "values": [{"measurement": "5-HT2A receptor functional activity", "setting": "5-HT2A receptor [2]", "value": "strong agonist of the 5-HT2A receptor"}, {"measurement": "side effects", "setting": "[7]", "value": "can cause nausea and panic attacks"}]}
{"smiles": "CNC1(c2ccccc2Cl)CCCCC1=O", "note": "(centres unmarked) [ketamine]", "values": [{"measurement": "functional connectivity in the right lateral PFC", "setting": "right lateral PFC", "value": "improved functional connectivity in the right lateral PFC"}]}
{"smiles": "O=C(c1ccc(F)cc1)C1CCN(CCn2c(=O)[nH]c3ccccc3c2=O)CC1", "note": "[ketanserin]", "values": [{"measurement": "5-HT2A receptors blocked", "setting": "5-HT2A receptor [8]", "value": "about 30%"}, {"measurement": "psilocybin-induced head twitch response", "setting": "serotonin receptor", "value": "sufficient to block the psilocybin-induced head twitch response"}, {"measurement": "effect on psilocybin-induced growth of dendritic spines", "setting": "[9]; pre-treatment with 5-HT2A receptor antagonist", "value": "did not eliminate the psilocybin-induced growth of dendritic spines"}]}
{"smiles": "CN(C)CCc1c[nH]c2cccc(OP(=O)(O)O)c12", "note": "[psilocybin]", "values": [{"measurement": "5-HT2A receptor functional activity", "setting": "5-HT2A receptor [2]", "value": "strong agonist of the 5-HT2A receptor"}, {"measurement": "excitatory neurotransmission in medial prefrontal cortex (mEPSCs)", "setting": "[10]", "value": "increased excitatory neurotransmission in the medial prefrontal cortex"}, {"measurement": "persistence of changes in dendritic spine density", "setting": "[9]; following the single dose", "value": "at least a month"}, {"measurement": "dendritic spine formation/elimination rate", "setting": "[9]; male and female mice", "value": "increased formation rate, rather than reduced elimination rate"}, {"measurement": "dendritic spine density and spine head width", "setting": "[9]; single dose, within one day", "value": "measurable increase in dendritic spine density, as well as increased spine head width, within one day"}]}
